Test results from patent US7678791B2, “Nitroheteroaryl-containing rifamycin derivatives” (Cumbre IP Ventures, L.P., priority 2006, dated 2010).
In brackets after ≈: the same amount, converted by molar mass. Read-outs that look alike come from different tables or passages of the source.

Legend:
Format in all cases: cell-based
[1] = tested on: Haemophilus influenzae ATCC 10211; assay: MIC by microbroth dilution, H. influenzae
Source text: (§1) Methods for dilution antimicrobial susceptibility tests for bacteria that grow aerobically, 5th ed. M7-A5. National Committee for Clinical Laboratory Standards, Wayne, Pa.).

[2] = tested on: Mycobacterium tuberculosis H37Rv; assay: MIC, M. tuberculosis
[3] = tested on: Escherichia coli ATCC 25922; assay: MIC by microbroth dilution, E. coli
Source text: as §1

[4] = tested on: Staphylococcus aureus ATCC 29213; assay: MIC by microbroth dilution, S. aureus
Source text: as §1

[5] = tested on: Bacteroides fragilis CB-1621; assay: MIC, B. fragilis; conditions: CB1621
[6] = tested on: Helicobacter pylori CB1572 (Rif-resistant, rpoB L525I, D530N); assay: microbe, parasite or virus in culture; conditions: read-out: MIC H. pylori CB1572 (Rif-resistant)
Source text: as §1

[7] = tested on: Helicobacter pylori ATCC 700392; assay: MIC by agar dilution, H. pylori
Source text: as §1

[8] = tested on: Clostridium difficile CB-1620; assay: MIC, C. difficile; conditions: Clostridioides difficile, CB1620
[9] = ATCC25922, read-out: MIC E. coli ATCC# 25922
[10] = ATCC29213, read-out: MIC S. aureus ATCC# 29213
[11] = ATCC700392, read-out: MIC H. pylori ATCC# 700392

Compound | MIC ([1]; ATCC10211, read-out: MIC H. influenzae ATCC# 10211) [µg/mL] | MIC [2] [µg/mL] | MIC [3, 9] [µg/mL] | MIC [4, 10] [µg/mL] | MIC [5] [µg/mL] | MIC [6] [µg/mL] | MIC [7, 11] [µg/mL] | MIC [8] [µg/mL] | MIC ([1]; ATCC10211, microbroth dilution, read-out: MIC H. influenzae ATCC# 10211) [µg/mL] | MIC ([3]; ATCC25922, microbroth dilution, read-out: MIC E. coli ATCC# 25922) [µg/mL] | MIC ([4]; ATCC29213, microbroth dilution, read-out: MIC S. aureus ATCC# 29213) [µg/mL] | MIC ([7]; ATCC700392, agar dilution, read-out: MIC H. pylori ATCC# 700392) [µg/mL]
CO[C@H]1/C=C/O[C@@]2(C)Oc3c(C)c(O)c4c(c3C2=O)C2=NC3(CCN(CCn5c([N+](=O)[O-])cnc5C)CC3)NC2=C(NC(=O)/C(C)=C\C=C\[C@H](C)[C@H](O)[C@@H](C)[C@@H](O)[C@@H](C)[C@H](OC(C)=O)[C@@H]1C)C4=O [Example 1, 4-Deoxy-3,4-[2-spiro-[1-[2-(2-methyl-5-nitro-imidazol-1-yl)ethyl]-piperidin-4-yl]]-(1H)-imidazo-(2,5-dihydro)rifamycin S] | 1 (≈ 1.06 µM) | 0.016 (≈ 0.0169 µM) | 16 (≈ 16.9 µM) | 0.03 (≈ 0.0318 µM) | 0.03 (≈ 0.0318 µM) | 0.5 (≈ 0.53 µM) | ≤ 0.03 | 0.00025 (≈ 0.000265 µM) |  |  |  | 
CO[C@H]1/C=C/O[C@@]2(C)Oc3c(C)c(O)c4c(O)c(c(/C=N/N5CCN(CCn6c([N+](=O)[O-])cnc6C)CC5)c(O)c4c3C2=O)NC(=O)/C(C)=C\C=C\[C@H](C)[C@H](O)[C@@H](C)[C@@H](O)[C@@H](C)[C@H](OC(C)=O)[C@@H]1C [Example 3, 3-[[[4-[2-(2-methyl-5-nitro-imidazol-1-yl)ethyl]-1-piperazinyl]imino]methyl]rifamycin SV] |  |  |  | 0.03 (≈ 0.0312 µM) |  | 2 (≈ 2.08 µM) | 0.5 (≈ 0.52 µM) |  |  |  |  | 
CO[C@H]1/C=C/O[C@@]2(C)Oc3c(C)c(O)c4c(O)c(c(/C=N/N5CCN(C)CC5)c(O)c4c3C2=O)NC(=O)/C(C)=C\C=C\[C@H](C)[C@H](O)[C@@H](C)[C@@H](O)[C@@H](C)[C@H](OC(C)=O)[C@@H]1C [rifampin, reference compound] |  |  |  |  | 0.06 (≈ 0.0729 µM) | > 32 |  | 0.001 (≈ 0.00122 µM) | 0.24 (≈ 0.292 µM) | 8 (≈ 9.72 µM) | 0.008 (≈ 0.00972 µM) | 0.12 (≈ 0.146 µM)
CO[C@H]1/C=C/O[C@@]2(C)Oc3c(C)c(O)c4c(=O)c(c5oc6cc(N7CCN(CCn8c([N+](=O)[O-])cnc8C)CC7)cc(O)c6nc-5c4c3C2=O)NC(=O)/C(C)=C\C=C\[C@H](C)[C@H](O)[C@@H](C)[C@@H](O)[C@@H](C)[C@H](OC(C)=O)[C@@H]1C [Example 4, 3′-Hydroxy-5′-[4-[2-(2-methyl-5-nitro-imidazol-1-yl)ethyl]-1-piperazinyl]benzoxazinorifamycin] |  |  | > 8 | < 0.004 |  | 1 (≈ 0.963 µM) | ≤ 0.03 |  |  |  |  | 
